Assay results: patent US11642366B2, “Methods for preventing a serious health consequence and/or tissue damage after exposure to ionizing radiation and/or chemotherapy” (GLYCOMIRA THERAPEUTICS, INC., priority 2018, dated 2023)

Experiments:
[1] = test system: ROM (radiation induced oral mucositis) in the tongue; assay: Study (1): single dose x-ray irradiation induced ROM, necropsy and histology of the tongue; format: in vivo, mouse (BDF1 male); conditions: 30 mg/kg SQ once daily day -2 to 7
Text: Modified hyaluronan (referred to herein as GM-1111) used to treat the animals is a sulfated hyaluronan methylated at the primary C-6 hydroxyl position of an N-acetyl-glucosamine residue and having a molecular weight of approximately 5.5 kDa.
Approximately 7-8 weeks of old male BDF1 (B6D2F1) mice were purchased from Charles River Laboratories (MA). These animals were housed in a room with fully controlled environment (temperature, humidity, and light/dark cycle). The feed and water were freely accessible to all animals throughout the entire study period. All animals were acclimatized for one week prior to the irradiation and they were approximately 8-10 weeks old at the time of the study. The experimental protocol (16-07008) was approved by the University of Utah Institutional Animal Care and Use Committee (IACUC). […]
(§1) Body weights of the animals were measured every other day from 2 days prior to the first irradiation day (day 0). Clinical signs were monitored every day during the entire experimental period. […]
Histological observations were graded for each category and the sum of these grades was used to designate the severity of each sample. The resulting severity scores from all irradiation groups were analyzed with Kruskal-Wallis test followed by Dunnett-type multiple comparison test using nparcomp package. […]

myeloperoxidase (MPO) = assay: Study (1): tissue concentrations of myeloperoxidase (MPO) in tongue homogenate by ELISA; format: in vivo, mouse (BDF1 male); conditions: 30 mg/kg SQ once daily day -2 to 7; 20 Gy; day 8; vehicle/irradiated 50%
Text: Prior to the x-ray irradiation, all animals except the healthy control group were gently guided into a restrainer for short durations. This behavioral training was held once daily for two days and it was designed to reduce potential stresses on the animals during the once daily irradiation session. For head-only irradiation, the restrainers containing the animals were shielded with a lead block that had rectangular holes to expose the head. X-rays were generated by RS2000 Biological Research Irradiator (Rad Source Technologies, GA) with parameters set as 160 kV/25 mA. For study (1), the animals were divided into 4 groups (10 mice for each group)—vehicle (phosphate buffered saline) treated healthy, vehicle treated ROM, GM-1111 treated ROM, and HA treated ROM. […]
as §1
All tongue samples were thawed on ice prior to homogenization. […] The total protein concentration of the supernatant was measured for each sample using the Pierce™ Protein Assay kit. Tissue concentrations of IL-6 and myeloperoxidase (MPO) were then determined with commercially available ELISA kits: IL-6 (BioLegend, CA) and MPO (R&D Systems, MN). […]

## Hyaluronic acid [HA]
[1]; 20 Gy
  Overall effect against ROM (necropsy, MPO, histology): did not show any measurable therapeutic benefits
[1]; 20 Gy head-only x-ray on day 0, necropsy day 8
  Ulcerative lesions in the tongue at necropsy (Toluidine Blue staining): severe ulcerative lesions in the tongue similar to the vehicle treated animals
Myeloperoxidase (MPO)
  Animals with higher than normal range of MPO in the tongue: about 70%
